Data as given in ChEMBL document CHEMBL5390201, “The Natural Alkaloid (-)-N-Hydroxyapiosporamide Suppresses Colorectal Tumor Progression as an NF-κB Pathway Inhibitor by Targeting the TAK1-TRAF6 Complex” (J Nat Prod, 2023).
pIC50: −log10 of the molar value. Calls of active or inactive are those of the source. No cut-off for these calls is given here.

Columns and labels:
[1] = Toxicity in athymic nude BALB/c mouse xenografted with human HT-29 cells assessed as reduction in body weight at 5 to 15 mg/kg, ip administered every other day and measured every other day for 16 days; type: organism-based; settings: in vivo, 384 h, dose 5-15 mg/kg, time 16 day
[2] = system: HCT-116; assay: Antitumor activity against human HCT-116 cells xenografted in athymic nude BALB/c mouse assessed as reduction in tumor volume at 5 to 15 mg/kg, ip administered every other day and measured every other day for 16 days; type: functional, organism-based; settings: dose 5-15 mg/kg, time 16.0 day
[3] = system: Mus musculus; assay: In vivo inhibition of NFkappaB activation in LPS-induced BALB/c mouse model of endotoxin shock assessed as inhibition of TNF-alpha mRNA expression in liver at 5 mg/kg, ip pretreated for 4 hrs followed by LPS stimulation for 1 hr by RT-PCR analysis; type: functional, organism-based; settings: time 5.0 hrs
[4] = system: HT-29; assay: Induction of apoptosis in human HT-29 cells assessed as early apoptotic cells at 1 uM incubated for 24 hrs by Annexin V-FITC/PI staining based flow cytometric analysis (reference value: 5.29 %); type: functional
[5] = system: HCT-116; assay: Induction of apoptosis in human HCT-116 cells assessed as inhibition of caspase 8 protein expression measured for 24 hrs by Western blot analysis; type: functional, cell-based; settings: dose 0-10 µM
[6] = system: HCT-116; assay: Induction of apoptosis in human HCT-116 cells assessed as necrotic cells at 10 uM incubated for 24 hrs by Annexin V-FITC/PI staining based flow cytometric analysis (reference value: 1.1 %); type: functional
[7] = Toxicity in athymic nude BALB/c mouse xenografted with human HCT-116 cells assessed as reduction in body weight at 5 to 15 mg/kg, ip administered every other day and measured every other day for 16 days; type: organism-based; settings: in vivo, 384 h, dose 5-15 mg/kg, time 16 day
[8] = system: HT-29; assay: Induction of autophagic flux in human HT-29 cells assessed as increase in LC3I to LC3II conversion preincubated with 3-methyladenine for 1 hr followed by compound addition and measured after 24 hrs by Western blot analysis; type: functional, cell-based
[9] = system: HCT-116; assay: Induction of apoptosis in human HCT-116 cells assessed as early apoptotic cells at 0.25 uM incubated for 24 hrs by Annexin V-FITC/PI staining based flow cytometric analysis (reference value: 7.22 %); type: functional
[10] = system: HT-29; assay: Induction of cell cycle arrest in human HT-29 cells assessed as accumulation of cells at G0/G1 phase at 5 uM by RNase/PI staining based flow cytometry analysis (reference value: 50.73 %); type: functional
[11] = target: T1, Nuclear factor NF-kappa-B complex (Homo sapiens) (UniProt Q00653+P19838+Q04206); assay: Inhibition of TNF-alpha induced NFkappaB activation in human HCT-116 cells assessed as downregulation of A20 gene expression pretreated for 24 hrs followed by TNFalpha stimulation and measured after 2 hrs by quantitative RT-PCR analysis; type: cell-based; settings: dose 1-10 µM, time 26.0 hrs
T1 sequence (P19838 whole entry, looked up): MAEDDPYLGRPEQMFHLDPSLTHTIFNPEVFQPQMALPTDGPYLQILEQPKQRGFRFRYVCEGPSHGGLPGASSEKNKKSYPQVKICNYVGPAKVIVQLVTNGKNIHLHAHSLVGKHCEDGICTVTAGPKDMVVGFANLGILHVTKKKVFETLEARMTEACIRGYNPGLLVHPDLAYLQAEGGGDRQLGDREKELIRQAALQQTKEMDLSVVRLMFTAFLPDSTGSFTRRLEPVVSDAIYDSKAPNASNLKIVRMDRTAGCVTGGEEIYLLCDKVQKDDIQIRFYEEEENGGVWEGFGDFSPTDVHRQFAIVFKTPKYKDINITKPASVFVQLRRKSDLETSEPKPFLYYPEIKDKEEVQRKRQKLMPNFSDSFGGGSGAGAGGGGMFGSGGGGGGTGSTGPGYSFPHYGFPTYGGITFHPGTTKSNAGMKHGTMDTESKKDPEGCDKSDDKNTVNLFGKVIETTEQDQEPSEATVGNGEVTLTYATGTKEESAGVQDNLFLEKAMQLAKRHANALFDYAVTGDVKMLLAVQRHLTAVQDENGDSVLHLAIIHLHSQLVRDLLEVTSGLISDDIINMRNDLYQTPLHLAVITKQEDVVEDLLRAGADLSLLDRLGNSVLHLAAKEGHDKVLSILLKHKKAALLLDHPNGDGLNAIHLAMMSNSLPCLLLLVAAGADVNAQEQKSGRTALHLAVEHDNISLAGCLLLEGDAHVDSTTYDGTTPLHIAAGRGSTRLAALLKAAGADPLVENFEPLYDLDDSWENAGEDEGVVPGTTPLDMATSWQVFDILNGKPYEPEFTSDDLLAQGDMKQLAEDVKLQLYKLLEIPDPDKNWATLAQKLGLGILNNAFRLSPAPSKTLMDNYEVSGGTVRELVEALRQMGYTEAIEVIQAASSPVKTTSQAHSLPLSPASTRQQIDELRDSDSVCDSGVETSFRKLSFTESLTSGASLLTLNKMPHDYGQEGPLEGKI
T1 sequence (Q00653 whole entry, looked up): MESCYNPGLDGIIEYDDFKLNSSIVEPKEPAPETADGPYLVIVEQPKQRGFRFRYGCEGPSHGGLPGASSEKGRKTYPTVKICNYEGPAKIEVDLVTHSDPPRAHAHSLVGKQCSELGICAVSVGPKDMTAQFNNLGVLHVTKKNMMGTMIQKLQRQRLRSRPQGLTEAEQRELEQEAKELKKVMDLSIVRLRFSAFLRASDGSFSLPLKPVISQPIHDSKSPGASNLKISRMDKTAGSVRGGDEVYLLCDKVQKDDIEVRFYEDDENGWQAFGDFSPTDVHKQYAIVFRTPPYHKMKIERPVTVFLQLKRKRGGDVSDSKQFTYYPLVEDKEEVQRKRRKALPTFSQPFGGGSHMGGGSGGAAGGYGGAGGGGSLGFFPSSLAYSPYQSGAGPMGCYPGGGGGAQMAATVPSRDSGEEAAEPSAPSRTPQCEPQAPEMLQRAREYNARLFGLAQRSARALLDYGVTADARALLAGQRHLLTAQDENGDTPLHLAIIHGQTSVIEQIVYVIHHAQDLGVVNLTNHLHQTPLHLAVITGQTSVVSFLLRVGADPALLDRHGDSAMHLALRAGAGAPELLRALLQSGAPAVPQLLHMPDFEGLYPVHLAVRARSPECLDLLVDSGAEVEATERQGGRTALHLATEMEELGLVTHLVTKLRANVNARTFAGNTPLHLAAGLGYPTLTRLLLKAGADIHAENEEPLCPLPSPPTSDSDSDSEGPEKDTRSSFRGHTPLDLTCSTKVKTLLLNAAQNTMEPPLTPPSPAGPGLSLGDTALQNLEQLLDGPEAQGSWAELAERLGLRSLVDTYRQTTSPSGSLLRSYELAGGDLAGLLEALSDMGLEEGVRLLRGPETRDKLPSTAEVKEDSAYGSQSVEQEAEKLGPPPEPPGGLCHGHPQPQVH
T1 sequence (Q04206 whole entry, looked up): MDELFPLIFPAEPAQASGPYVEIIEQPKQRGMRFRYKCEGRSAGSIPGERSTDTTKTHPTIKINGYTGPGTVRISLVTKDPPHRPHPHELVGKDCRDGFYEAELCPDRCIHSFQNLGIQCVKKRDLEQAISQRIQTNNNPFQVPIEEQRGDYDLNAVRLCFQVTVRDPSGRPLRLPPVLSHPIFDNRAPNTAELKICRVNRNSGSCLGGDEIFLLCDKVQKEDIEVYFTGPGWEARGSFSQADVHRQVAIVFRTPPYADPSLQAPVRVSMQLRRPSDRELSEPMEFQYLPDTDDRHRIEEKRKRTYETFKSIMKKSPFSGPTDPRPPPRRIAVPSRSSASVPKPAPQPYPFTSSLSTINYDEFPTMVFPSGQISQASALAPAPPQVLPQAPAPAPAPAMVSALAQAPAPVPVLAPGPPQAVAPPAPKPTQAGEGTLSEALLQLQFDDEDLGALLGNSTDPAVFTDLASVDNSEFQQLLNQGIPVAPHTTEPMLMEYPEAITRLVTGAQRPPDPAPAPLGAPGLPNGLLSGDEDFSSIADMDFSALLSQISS

[12] = system: HT-29; assay: Cytotoxicity against human HT-29 cells assessed as inhibition of cell growth by SRB assay; type: functional, cell-based; settings: time 24-48 hrs, TDE = time-dependent effect
[13] = system: HT-29; assay: Cytotoxicity against human HT-29 cells assessed as decrease in cell viability incubated for 48 hrs by SRB assay; type: functional, cell-based; settings: HT-29, 48 h
[14] = system: HCT-116; assay: Induction of autophagic flux in human HCT-116 cells assessed as increase in LC3 protein expression preincubated with chloroquine for 1 hr followed by compound addition and measured after 24 hrs by Western blot analysis; type: functional, cell-based
[15] = system: HCT-116; assay: Induction of apoptosis in human HCT-116 cells assessed as necrotic cells at 5 uM incubated for 24 hrs by Annexin V-FITC/PI staining based flow cytometric analysis (reference value: 0.69 %); type: functional
[16] = system: HT-29; assay: Induction of apoptosis in human HT-29 cells assessed as late apoptotic cells at 10 uM incubated for 24 hrs by Annexin V-FITC/PI staining based flow cytometric analysis (reference value: 1.56 %); type: functional
[17] = system: SW-620; assay: Cytotoxicity against human SW620 cells assessed as decrease in cell viability incubated for 48 hrs by SRB assay; type: functional, cell-based; settings: SW-620, 48 h
[18] = system: HT-29; assay: Induction of cell cycle arrest in human HT-29 cells assessed as decrease in Cdc2 protein expression upto 10 uM incubated for 24 hrs by Western blot analysis; type: functional, cell-based
[19] = system: HT-29; assay: Induction of cell cycle arrest in human HT-29 cells assessed as accumulation of cells at G2/M phase at 1 uM by RNase/PI staining based flow cytometry analysis (reference value: 9.93 %); type: functional
[20] = system: HT-29; assay: Induction of cell cycle arrest in human HT-29 cells assessed as accumulation of cells at S phase at 5 uM by RNase/PI staining based flow cytometry analysis (reference value: 39.34%); type: functional
[21] = system: HT-29; assay: Induction of apoptosis in human HT-29 cells assessed as necrotic cells at 10 uM incubated for 24 hrs by Annexin V-FITC/PI staining based flow cytometric analysis (reference value: 0.14 %); type: functional
[22] = Toxicity in athymic nude BALB/c mouse assessed as change in serum AKP level at 5 to 15 mg/kg, ip administered every other day and measured after 14 days; type: organism-based; settings: in vivo, 336 h, dose 5-15 mg/kg, time 14 day
[23] = target: T1, Nuclear factor NF-kappa-B complex (Homo sapiens); assay: Inhibition of NFkappaB activation in HEK293T cells transfected with HA-tagged TAB2 and kappaB luciferase/pTK-renilla reporters at 2 uM incubated for 6 hrs by Dual Luciferase Reporter Assay; type: cell-based; settings: HEK-293T
[24] = target: T1, Nuclear factor NF-kappa-B complex (Homo sapiens); assay: Inhibition of TNF-alpha induced NFkappaB activation in human HT-29 cells assessed as downregulation of E-selectin gene expression pretreated for 24 hrs followed by TNFalpha stimulation and measured after 2 hrs by quantitative RT-PCR analysis; type: cell-based; settings: dose 1-10 µM, time 26.0 hrs
[25] = system: HT-29; assay: Induction of cell death in human HT-29 cells at 0.5 to 10 uM pretreated with Z-VAD-FMK for 1 hr followed by compound addition and measured after 24 hrs by SRB assay; type: functional, cell-based; settings: dose 0.5-10 µM
[26] = system: HT-29; assay: Induction of apoptosis in human HT-29 cells assessed as late apoptotic cells at 5 uM incubated for 24 hrs by Annexin V-FITC/PI staining based flow cytometric analysis (reference value: 6.91 %); type: functional
[27] = system: RAW264.7; assay: Inhibition of LPS-induced NFkappaB activation in mouse RAW264.7 cells assessed as inhibition of p65 phosphorylation preincubated for 24 hrs followed by LPS stimulation for 3 hrs by Western blot analysis; type: cell-based; settings: dose 1-10 µM, time 27.0 hrs
[28] = system: Mus musculus; assay: Anti-inflammatory activity in AOM/DSS-induced BALB/c mouse model inflammatory bowel disease assessed as reduction in tumor number at 5 to 10 mg/kg, ip pretreated with AOM for 7 days further replaced with DSS for 7 days and repeated for 2 times followed by every 2 days compound treatment for […] starting from day 50 and measured once a week; type: functional, organism-based; settings: dose 5-10 mg/kg, time 21.0 day
[29] = system: HCT-116; assay: Induction of cell cycle arrest in human HCT-116 cells assessed as accumulation of cells at G2/M phase at 1 uM by RNase/PI staining based flow cytometry analysis (reference value: 23.15 %); type: functional
[30] = system: HT-29; assay: Cytotoxicity against human HT-29 cells assessed as inhibition of cell growth incubated for 24 hrs by SRB assay; type: functional, cell-based; settings: HT-29, 24 h
[31] = system: HT-29; assay: Induction of apoptosis in human HT-29 cells assessed as early apoptotic cells at 0.25 uM incubated for 24 hrs by Annexin V-FITC/PI staining based flow cytometric analysis (reference value: 5.29 %); type: functional

With `C[C@@H]1CC[C@H]2[C@H](C(=O)c3c(O)c([C@@]4(O)CC[C@@H](O)[C@H]5O[C@H]54)cn(O)c3=O)[C@H](C)C=C[C@@H]2C1` the Activity [1] was “Non-Toxic”, the Activity [2] was “Active” and the inhibition [3] was “Active”. For the same compound, the Activity [4] was 47.4%, the Activity [5] was “Dose-Dependent Effect” and the Activity [6] was 1.56%. For the same compound, the Activity [7] was “Non-Toxic”, the Activity [8] was “Active” and the Activity [9] was 8.93%. For the same compound, the Activity [10] was 67.37%, the inhibition [11] was “Dose-Dependent Effect” and the Activity [12] was “Tde”. The pIC50 [13] was 6.24, the Activity [14] was “Active” and the Activity [15] was 0.52%. The Activity [16] was 16.8%, the pIC50 [17] was 6.24 and the Activity [18] was “Active”. The Activity [19] was 7.08%, the Activity [20] was 32.46% and the Activity [21] was 0.16%. The Activity [22] was “Non-Toxic”, the inhibition [23] was “Active” and the inhibition [24] was “Dose-Dependent Effect”. For the same compound, the inhibition [25] was “inactive”, the Activity [26] was 21.9% and the inhibition [27] was “Dose-Dependent Effect”. The Activity [28] was “Active”, the Activity [29] was 20.12% and the pIC50 [30] was 6.21. For the same compound, the Activity [31] was 12.6%.
